The record followed here is patent US12012415B2, “Compositions and methods for the diagnosis, treatment and prevention of neoplastic and neurological disorders” (AscentGene, Inc., priority 2018, dated 2024).

The test system of one experiment is Glioma cells. Put plainly: Cell viability assay in glioma cells versus TMZ and Carmustine. Format: cell-based, human. The conditions noted are these: 48 hours treatment. How it is done:
Human glioma cell lines of U251, SF539, SF295 were obtained from NCI/DTP and U87 was obtained from ATCC. U251, SF539, and SF295 cells were grown in RPMI (Gibco) medium; U87 cells were grown in EMEM medium (ATCC), all the cells culture media containing 10% FBS and 100 unit/ml of Penicillin-Streptomycin, and cells were incubated in a 37 °C/5% CO2 humidified hood. One day before chemical compounds treatment, four kinds of cells U251, SF539, SF295, and U87 were seeded in 96-well plates at 10,000 cells/well (100 μl) with triplicate. The culture medium was removed and cells were treated with a series different concentration of AG1601/in correspond fresh media. Following an additional incubation of 48 hours at 37° C./5% CO2, cells proliferation assay was performed with Cell Counting Kit-8 (Dojindo Laboratories, #CK04), added 10 μl of reagent to the cells in each well after replacing with 100 μl of fresh media, mix well, following an additional 2 to 3 hours incubation at 37° C./5% CO2, read wavelengths of OD450 nm in a 96-well plate reader (Victor 2, 1420 Multilabel counter), data analysis were performed with Excel and it is platted as relative mean OD450 nm+/−standard error of the mean.
Cells were treated with indicated content of AG-1601 for 48 hours, then followed by performance of cell viability assays. […]

The next experiment has as its system SIRT1 and p-CREB. As to the kind of experiment: Western blot of SIRT1, CREB and p-CREB in hippocampus, Aβ1-42 AD rat model. Format: in vivo, rats. The conditions noted are these: vs Aβ1-42 group. How it is done: Aβ1-42 (Sigma-Aldrich, St. Louis, MO, USA;) was dissolved in double-distilled water at the concentration of 5 μg/μl, and incubated at 37° C. for one week before surgery. The rats were randomly divided into four groups as Sham (n=8), Sham+AG-1601 (n=8), Aβ1-42 (n=8) and Aβ1-42+AG-1601 (n=8). The Alzheimer's disease rat models were established by intracerebroventricular (i.c.v.) injection of Aβ1-42 aggregates. The animals were anesthetized with intraperitoneal injection of pentobarbital sodium (50 mg/kg) and placed in a stereotaxic apparatus (Narishige, Japan). The head skin of the rat was opened and two small holes were drilled on both sides of skull following the coordinates: 0.8 mm posterior to bregma, +1.4 mm lateral to sagittal suture, 4.0 mm beneath the surface of brain. Aβ1-42 (2.0 μl per side) was injected bilaterally into the lateral ventricles through micro-syringe. The needle was taken out after 5 minutes of the injection to ensure the aggregates were infused completely. Rats in the Sham group underwent the same operational process, but same volumes of double-distilled water were injected instead of Aβ1-42. After surgery, all rats were injected with penicillin (100,000 U) in the hindquarter muscle to prevent infection. The animals of Sham+AG-1601 and Aβ1-42+AG-1601 groups were intravenous injection with AG-1601 (1 mg/kg), while the same volume vehicle was implemented for the other groups every day for 14 days after one week of the postoperative recovery.
Three rats of each group were randomly selected to be sacrificed and their hippocampal tissues were immediately removed at 0° C. and stored at minus 80° C. For subcellular fractionation, 100- to 200-mg weight rat hippocampal tissue was used. The procedure has been described (Yang et al., 2017). The tissues were homogenized for 30 s in 500 μl TEVP buffer containing 320 mM sucrose and the homogenate was obtained. The homogenate (H) was centrifuged at 900×g for 10 min at 4° C., and the supernatant (S1) was centrifuged for 20 min at 10000×g at 4° C. to obtain the cytosolic/light membrane fraction (S2) and the crude synaptosomal fraction pellet (P2). The pellet was resuspended in TEVP buffer containing 35.6 mM sucrose solution and then centrifuged at 25,000×g for 20 min at 4° C. The supernatant was stored at minus 80° C. and referred as the synaptic vesicular fraction (LS1). The pellet, synaptic plasma membranes (LP1), was resuspended in TEVP buffer containing 1% Triton X-100 and centrifuged at 330,000×g for 30 min at 4° C. The supernatant referred as Triton X-100-soluble fraction (TSF) was stored at minus 80° C. The final pellet, the Triton X-100-insoluble fraction (TIF), was homogenized in TEVP buffer containing 1% SDS.
The total homogenate (H) and synaptosomal fractions were analyzed. Equal amounts of 20 μg from each sample were separated via 10% or 13% SDS-PAGE gels and subsequently transferred onto PVDF membranes (Millipore, USA). […] After washing with TBST buffer, signals were visualized with the HRP substrate (Millipore, USA) and detected with a chemiluminescence kit (Tanon 5500, Tanon Science & Technology, China). The gray-scale value of protein band was quantified by NIH Image J program.
Background: A western blot detects proteins with antibodies after separation by electrophoresis.

SMILES strings stand for the structures.

With `C=CC1=C(C)c2cc3[nH]c(cc4nc(cc5[nH]c(cc1n2)c(C)c5C=C)C(C)=C4CCC(=O)O)c(CCC(=O)NCCCc1ccccc1)c3C` [AG-1601, 3-(2,8,13,18-tetramethyl-3-(3-oxo-3-((3-phenylpropyl)amino)propyl)-12,17-divinylporphyrin-7-yl)propanoic acid], the “efficacy on glioma cells compared with TMZ and Carmustine” value with Glioma cells is “better efficacy on Glioma cells in vitro than TMZ and Carmustine”. Besides, in the experiment on SIRT1 and p-CREB, the SIRT1 protein level entry is “the decline was prevented”, the “expression of CREB” value is on record as “rescued the reductions” and the p-CREB level entry is on record as “significantly increased”. In addition, in the experiment with SIRT1 and p-CREB (listed as AG-1061), the SIRT1 protein level entry was “this decline was prevented” and the p-CREB level entry is recorded as “significantly increased the expression of p-CREB protein”.
